Results taken from patent US20230278983A1, “INDOLE DERIVATIVES AND USES THEREOF FOR TREATING A CANCER” (Universite Claude Bernard Lyon 1, priority 2020, published 2023).
Where two headings read alike, the source gives them in different places.

Molecular target: CK2 (Homo sapiens (Human), UniProt P68400)
Assay: Radiometric CK2 kinase assay
Type: biochemical
Conditions: for inhibition at 1 µM: compound at 1 μM

Sequence of CK2 (P68400 whole entry): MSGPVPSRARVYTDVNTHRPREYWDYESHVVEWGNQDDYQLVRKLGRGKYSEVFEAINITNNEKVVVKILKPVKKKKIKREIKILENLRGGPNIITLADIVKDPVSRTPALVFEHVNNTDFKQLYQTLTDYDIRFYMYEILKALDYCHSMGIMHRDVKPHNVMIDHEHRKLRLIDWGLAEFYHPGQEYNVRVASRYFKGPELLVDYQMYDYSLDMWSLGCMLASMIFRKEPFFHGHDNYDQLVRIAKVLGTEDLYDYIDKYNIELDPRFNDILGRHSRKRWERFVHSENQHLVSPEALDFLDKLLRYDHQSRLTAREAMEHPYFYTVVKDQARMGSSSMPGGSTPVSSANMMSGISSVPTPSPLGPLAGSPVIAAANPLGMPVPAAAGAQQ

Question: Which results are given for `CC(C)COC(=O)c1[nH]c2ccc(F)cc2c1-c1cn(CC2CCN(CCNS(=O)(=O)c3ccc(C(C)C)cc3)CC2)nn1` [AB603, Isobutyl 5-fluoro-3-(1-((1-(2-((4-isopropylphenyl)sulfonamido)ethyl)piperidin-4-yl)methyl)-1H-1,2,3-triazol-4-yl)-1H-indole-2-carboxylate]?
Answer: Competition with peptide substrate: not competitive with the peptide substrate; IC50: 150 nM; Inhibition of CK2a versus CK2 holoenzyme (CK2a compared with CK2 holoenzyme): not inhibited to the same extent

Question: For `CCc1ccc(S(=O)(=O)NCCN2CCC(Cn3cc(-c4c(C(=O)OCCN)[nH]c5ccc(F)cc45)nn3)CC2)cc1` [AB614, 2-Aminoethyl 3-(1-((1-(2-((4-ethylphenyl)sulfonamido)ethyl)piperidin-4-yl)methyl)-1H-1,2,3-triazol-4-yl)-5-fluoro-1H-indole-2-carboxylate], which IC50 (inhibition of CK2 activity, ATP 10 μM) is on record?
Answer: Its IC50 is 3240 nM.

Question: For `CCc1ccc(S(=O)(=O)NCCN2CCC(Cn3cc(-c4c(C(=O)NCC(C)C)[nH]c5ccc(F)cc45)nn3)CC2)cc1` [AB651, 3-(1-((1-(2-((4-Ethylphenyl)sulfonamido)ethyl)piperidin-4-yl)methyl)-111-1,2,3-triazol-4-yl)-5-fluoro-N-isobutyl-1H-indole-2-carboxamide], which inhibition at 1 µM (ATP 10 μM) is on record?
Answer: Its inhibition at 1 µM is 5%.

Question: How did the inhibition at 1 µM (ATP 10 μM) turn out when `CC(C)CNC(=O)c1[nH]c2ccc(F)cc2c1-c1cn(CC2CCN(CCNS(=O)(=O)c3ccc(C(C)C)cc3)CC2)nn1` [AB652, 5-Fluoro-N-isobutyl-3-(1-((1-(2-((4-isopropylphenyl)sulfonamido)ethyl)piperidin-4-yl)methyl)-1H-1,2,3-triazol-4-yl)-1H-indole-2-carboxamide] was run?
Answer: The inhibition at 1 µM was 4%.

Question: For `CCc1ccc(S(=O)(=O)NCCN2CCC(Cn3cc(-c4c(C(=O)OCCC(C)C)[nH]c5ccc(F)cc45)nn3)CC2)cc1` [AB663, Isopentyl 3-(1-((1-(2-((4-ethylphenyl)sulfonamido)ethyl)piperidin-4-yl)methyl)-1H-1,2,3-triazol-4-yl)-5-fluoro-1H-indole-2-carboxylate], which inhibition at 1 µM (ATP 10 μM) is on record?
Answer: The inhibition at 1 µM was 11%.

Question: With `CC(C)CCOC(=O)c1[nH]c2ccc(F)cc2c1-c1cn(CC2CCN(CCNS(=O)(=O)c3ccc(C(C)C)cc3)CC2)nn1` [AB664, Isopentyl 5-fluoro-3-(1-((1-(2-((4-isopropylphenyl)sulfonamido)ethyl)piperidin-4-yl)methyl)-1H-1,2,3-triazol-4-yl)-1H-indole-2-carboxylate] as the molecule, how does the inhibition at 1 µM (ATP 10 μM) read?
Answer: The inhibition at 1 µM was 15%.

Question: Which inhibition at 1 µM (ATP 10 μM) does the source give for `CC(C)CCOC(=O)c1[nH]c2ccc(F)cc2c1-c1cn(CC2CCN(CCNS(=O)(=O)c3ccc(CC(C)C)cc3)CC2)nn1` [AB669, Isopentyl 5-fluoro-3-(1-((1-(2-((4-isobutylphenyl)sulfonamido)ethyl)piperidin-4-yl)methyl)-1H-1,2,3-triazol-4-yl)-1H-indole-2-carboxylate] here?
Answer: The inhibition at 1 µM was 32%.

Question: `CCc1ccc(S(=O)(=O)NCCN2CCC(Cn3cc(-c4c(C(=O)NCCC(C)C)[nH]c5ccc(F)cc45)nn3)CC2)cc1` [AB670, 3-(1-((1-(2-((4-Ethylphenyl)sulfonamido)ethyl)piperidin-4-yl)methyl)-1H-1,2,3-triazol-4-yl)-5-fluoro-N-isopentyl-1H-indole-2-carboxamide] was tested. Which inhibition at 1 µM (ATP 10 μM) did it give?
Answer: Its inhibition at 1 µM is 14%.

Question: With `CC(C)CCNC(=O)c1[nH]c2ccc(F)cc2c1-c1cn(CC2CCN(CCNS(=O)(=O)c3ccc(C(C)C)cc3)CC2)nn1` [AB671, 5-Fluoro-N-isopentyl-3-(1-((1-(2-((4-isopropylphenyl)sulfonamido)ethyl)piperidin-4-yl)methyl)-1H-1,2,3-triazol-4-yl)-1H-indole-2-carboxamide] as the molecule, how does the inhibition at 1 µM (ATP 10 μM) read?
Answer: The inhibition at 1 µM was 18%.

Question: How did the inhibition at 1 µM (ATP 10 μM) turn out when `COCc1ccccc1-c1ccc(CN2CCC(Cn3cc(-c4c(C(=O)OCC(C)C)[nH]c5ccc(F)cc45)nn3)CC2)cc1Cl` [AB680, Isobutyl 3-(1-((1-((2-chloro-2′-(methoxymethyl)-[1,1′-biphenyl]-4-yl)methyl)piperidin-4-yl)methyl)-1H-1,2,3-triazol-4-yl)-5-fluoro-1H-indole-2-carboxylate] was run?
Answer: Its inhibition at 1 µM is 11%.

Question: For `COCc1ccccc1-c1ccc(C(=O)N2CCC(Cn3cc(-c4c(C(=O)OCC(C)C)[nH]c5ccc(F)cc45)nn3)CC2)cc1Cl` [AB681, Isobutyl 3-(1-((1-(2-chloro-2′-(methoxymethyl)-[1,1′-biphenyl]-4-carbonyl)piperidin-4-yl)methyl)-1H-1,2,3-triazol-4-yl)-5-fluoro-1H-indole-2-carboxylate], which inhibition at 1 µM (ATP 10 μM) is on record?
Answer: Its inhibition at 1 µM is 18%.

Question: Which inhibition at 1 µM (ATP 10 μM) does the source give for `COc1ccccc1-c1ccc(CN2CCC(Cn3cc(-c4c(C(=O)OCC(C)C)[nH]c5ccc(F)cc45)nn3)CC2)cc1Cl` [AB689, Isobutyl 3-(1-((1-((2-chloro-2′-methoxy-[1,1′-biphenyl]-4-yl)methyl)piperidin-4-yl)methyl)-1H-1,2,3-triazol-4-yl)-5-fluoro-1H-indole-2-carboxylate] here?
Answer: Its inhibition at 1 µM is 6%.

Question: For `CC(C)COC(=O)c1[nH]c2ccc(F)cc2c1-c1cn(CC2CCN(Cc3ccc(-c4cccc5[nH]ccc45)c(Cl)c3)CC2)nn1` [AB690, Isobutyl 3-(1-((1-(3-chloro-4-(1H-indol-4-yl)benzyl)piperidin-4-yl)methyl)-1H-1,2,3-triazol-4-yl)-5-fluoro-1H-indole-2-carboxylate], which inhibition at 1 µM (ATP 10 μM) is on record?
Answer: The inhibition at 1 µM was 31%.

Question: `CC(C)COC(=O)c1[nH]c2ccc(F)cc2c1-c1cn(CC2CCN(Cc3ccc(Oc4ccccc4)c(Cl)c3)CC2)nn1` [AB691, Isobutyl 3-(1-((1-(3-chloro-4-phenoxybenzyl)piperidin-4-yl)methyl)-1H-1,2,3-triazol-4-yl)-5-fluoro-1H-indole-2-carboxylate] was tested. Which inhibition at 1 µM (ATP 10 μM) did it give?
Answer: The inhibition at 1 µM was 3%.

Question: For `COc1ccc(C)cc1-c1ccc(CN2CCC(Cn3cc(-c4c(C(=O)OCC(C)C)[nH]c5ccc(F)cc45)nn3)CC2)cc1Cl` [AB692], which inhibition at 1 µM (ATP 10 μM) is on record?
Answer: Its inhibition at 1 µM is 5%.

Question: How did the inhibition at 1 µM (ATP 10 μM) turn out when `CC(C)COC(=O)c1[nH]c2ccc(F)cc2c1-c1cn(CC2CCN(Cc3ccc(Oc4ccccc4)c(C(C)C)c3)CC2)nn1` [AB697, Isobutyl 5-fluoro-3-(1-((1-(3-isopropyl-4-phenoxybenzyl)piperidin-4-yl)methyl)-1H-1,2,3-triazol-4-yl)-1H-indole-2-carboxylate] was run?
Answer: Its inhibition at 1 µM is 16%.

Question: With `CC(C)COC(=O)c1[nH]c2ccc(F)cc2c1-c1cn(CC2CCN(Cc3ccc(-c4cccc5[nH]ccc45)c(C(C)C)c3)CC2)nn1` [AB703, Isobutyl 3-(1-((1-(4-(1H-indol-4-yl)-3-isopropylbenzyl)piperidin-4-yl)methyl)-1H-1,2,3-triazol-4-yl)-5-fluoro-1H-indole-2-carboxylate] as the molecule, how does the inhibition at 1 µM (ATP 10 μM) read?
Answer: The inhibition at 1 µM was 8%.

Question: How did the inhibition at 1 µM (ATP 10 μM) turn out when `COCc1ccccc1-c1ccc(CN2CCC(Cn3cc(-c4c(C(=O)OCC(C)C)[nH]c5ccc(F)cc45)nn3)CC2)cc1C(C)C` [AB704] was run?
Answer: Its inhibition at 1 µM is 21%.

Question: How did the inhibition at 1 µM (ATP 10 μM) turn out when `CC(C)COC(=O)c1[nH]c2ccc(F)cc2c1-c1cn(CC2CCN(Cc3ccc(Oc4cccc(C(C)C)c4)c(C(C)C)c3)CC2)nn1` [AB713, Isobutyl 5-fluoro-3-(1-((1-(3-isopropyl-4-(3-isopropylphenoxy)benzyl)piperidin-4-yl)methyl)-1H-1,2,3-triazol-4-yl)-1H-indole-2-carboxylate] was run?
Answer: The inhibition at 1 µM was 5%.

Question: With `CC(C)COC(=O)c1[nH]c2ccc(F)cc2c1-c1cn(CC2CCN(Cc3ccc(Oc4ccc5c(c4)CCO5)c(C(C)C)c3)CC2)nn1` [AB717, Isobutyl 3-(1-((1-(4-((2,3-dihydrobenzofuran-5-yl)oxy)-3-isopropylbenzyl)piperidin-4-yl)methyl)-1H-1,2,3-triazol-4-yl)-5-fluoro-1H-indole-2-carboxylate] as the molecule, how does the inhibition at 1 µM (ATP 10 μM) read?
Answer: Its inhibition at 1 µM is 2%.

Question: For `CC(=O)c1cccc(Oc2ccc(CN3CCC(Cn4cc(-c5c(C(=O)OCC(C)C)[nH]c6ccc(F)cc56)nn4)CC3)cc2C(C)C)c1` [AB718, Isobutyl 3-(1-((1-(4-(3-acetylphenoxy)-3-isopropylbenzyl)piperidin-4-yl)methyl)-1H-1,2,3-triazol-4-yl)-5-fluoro-1H-indole-2-carboxylate], which inhibition at 1 µM (ATP 10 μM) is on record?
Answer: The inhibition at 1 µM was 5%.

Question: With `CC(C)COC(=O)c1[nH]c2ccc(F)cc2c1-c1cn(CC2CCN(Cc3ccc(-c4ccc5c(c4)CCO5)c(Cl)c3)CC2)nn1` [AB731, Isobutyl 3-(1-((1-(3-chloro-4-(2,3-dihydrobenzofuran-5-yl)benzyl)piperidin-4-yl)methyl)-1H-1,2,3-triazol-4-yl)-5-fluoro-1H-indole-2-carboxylate] as the molecule, how does the inhibition at 1 µM (ATP 10 μM) read?
Answer: Its inhibition at 1 µM is 5%.

Question: `CC(=O)c1cccc(-c2ccc(CN3CCC(Cn4cc(-c5c(C(=O)OCC(C)C)[nH]c6ccc(F)cc56)nn4)CC3)cc2Cl)c1` [AB739, Isobutyl 3-(1-((1-((3′-acetyl-2-chloro-[1,1′-biphenyl]-4-yl)methyl)piperidin-4-yl)methyl)-1H-1,2,3-triazol-4-yl)-5-fluoro-1H-indole-2-carboxylate] was tested. Which inhibition at 1 µM (ATP 10 μM) did it give?
Answer: The inhibition at 1 µM was 7%.

Question: `CC(C)CCOc1ccccc1-c1ccc(C(=O)N2CCC(Cn3cc(-c4c(C(=O)OCC(C)C)[nH]c5ccc(F)cc45)nn3)CC2)cc1Cl` [AB743, Isobutyl 3-(1-((1-(2-chloro-2′-(isopentyloxy)-[1,1′-biphenyl]-4-carbonyl)piperidin-4-yl)methyl)-1H-1,2,3-triazol-4-yl)-5-fluoro-1H-indole-2-carboxylate] was tested. Which inhibition at 1 µM (ATP 10 μM) did it give?
Answer: The inhibition at 1 µM was 9%.

Question: With `CC(C)CCOc1ccc(CN2CCC(Cn3cc(-c4c(C(=O)OCC(C)C)[nH]c5ccc(F)cc45)nn3)CC2)cc1Cl` [AB746, Isobutyl 3-(1-((1-(3-chloro-4-(isopentyloxy)benzyl)piperidin-4-yl)methyl)-1H-1,2,3-triazol-4-yl)-5-fluoro-1H-indole-2-carboxylate] as the molecule, how does the inhibition at 1 µM (ATP 10 μM) read?
Answer: The inhibition at 1 µM was 15%.

Question: `CC(C)COC(=O)c1[nH]c2ccc(F)cc2c1-c1cn(CC2CCN(Cc3ccc(-c4ccc5[nH]ccc5c4)c(Cl)c3)CC2)nn1` [AB753, Isobutyl 3-(1-((1-(3-chloro-4-(1H-indol-5-yl)benzyl)piperidin-4-yl)methyl)-1H-1,2,3-triazol-4-yl)-5-fluoro-1H-indole-2-carboxylate] was tested. Which inhibition at 1 µM (ATP 10 μM) did it give?
Answer: The inhibition at 1 µM was 18%.

Question: For `CC(C)COC(=O)c1[nH]c2ccc(F)cc2c1-c1cn(CC2CCN(S(=O)(=O)N3CCN(Cc4ccccc4)CC3)CC2)nn1` [AB755], which inhibition at 1 µM (ATP 10 μM) is on record?
Answer: Its inhibition at 1 µM is 56%.

Question: How did the inhibition at 1 µM (ATP 10 μM) turn out when `CC(C)COC(=O)c1[nH]c2ccc(F)cc2c1-c1cn(CC2CCN(C(=O)c3ccc(-c4cccc5[nH]ccc45)c(C(F)(F)F)c3)CC2)nn1` [AB756, Isobutyl 3-(1-((1-(4-(1H-indol-4-yl)-3-(trifluoromethyl)benzoyl)piperidin-4-yl)methyl)-1H-1,2,3-triazol-4-yl)-5-fluoro-1H-indole-2-carboxylate] was run?
Answer: Its inhibition at 1 µM is 19%.
